Measurements: US7414071B2, “Methods of treatment with selective EP4 receptor agonists” (Pfizer Inc., priority 2002, dated 2008)

Legend:
rat EP2 receptor = target: T1, rat EP2 receptor (Rattus norvegicus, UniProt Q62928); experiment: Rat EP2 receptor binding assay (displacement of 3H-prostaglandin E2 from 293S cell membranes); conditions: displacement of 3H-prostaglandin E2, 293S membranes
T1 construct: The full length rat EP2 receptor is made in accordance with the procedure in Nemoto et al; expressed in transfected cells; membranes
Description: (§1) The compounds of Formula I, which are useful in the methods of the present invention, bind to the prostaglandin E2 type 4 receptor (EP4 receptor). The full length coding sequence for the human EP1 receptor is made in accordance with the procedure in Funk et al., Journal of Biological Chemistry, 1993, 268, 26767-26772. The full length rat EP2 receptor is made in accordance with the procedure in Nemoto et al., Prostaglandins and other Lipid Mediators, 1997, 54, 713-725. The full length coding sequence for the human EP3 receptor is made in accordance with the procedure in Regan et al., British Journal of Pharmacology, 1994, 112, 377-385. The full length coding sequence for the rat EP4 receptor is made in accordance with the procedure in Sando et al., Biochem. Biophys. Res. Comm. 1994, 200, 1329-1333. These full length receptors are used to prepare 293S cells expressing the human EP1, rat EP2, human EP3 or rat EP4 receptors.
(§2) The full length receptors described above are used to prepare 293S cells expressing the EP1, EP2, EP3, and EP4 receptors. […]
(§3) Membrane Preparation: All operations are performed at 4° C. […] Pelleted membranes are resuspended to 3-10 mg protein per ml, protein concentration being determined of the method of Bradford [Bradford, M., Anal. Biochem. 1976, 72, 248]. […]

human EP3 receptor = target: T2, human EP3 receptor (Homo sapiens, UniProt P43115); experiment: Human EP3 receptor binding assay (displacement of 3H-prostaglandin E2 from 293S cell membranes); conditions: displacement of 3H-prostaglandin E2, 293S membranes
T2 construct: expressed in transfected cells; membranes
T2 sequence (P43115 1-390): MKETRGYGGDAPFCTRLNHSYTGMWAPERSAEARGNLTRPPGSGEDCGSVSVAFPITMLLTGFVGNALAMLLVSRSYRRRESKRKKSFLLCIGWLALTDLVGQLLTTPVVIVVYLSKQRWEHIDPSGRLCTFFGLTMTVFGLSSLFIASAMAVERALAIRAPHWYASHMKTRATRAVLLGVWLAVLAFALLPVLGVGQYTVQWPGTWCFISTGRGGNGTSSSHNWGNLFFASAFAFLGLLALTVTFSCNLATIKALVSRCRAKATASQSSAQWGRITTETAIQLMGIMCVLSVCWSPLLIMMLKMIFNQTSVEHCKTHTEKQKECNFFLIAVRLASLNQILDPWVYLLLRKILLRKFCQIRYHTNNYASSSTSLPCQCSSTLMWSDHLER
Description: as §1, §2, §3

human EP1 receptor = target: T3, human EP1 receptor (Homo sapiens, UniProt P34995); experiment: Human EP1 receptor binding assay (displacement of 3H-prostaglandin E2 from 293S cell membranes); conditions: displacement of 3H-prostaglandin E2, 293S membranes
T3 construct: expressed in transfected cells; membranes
T3 sequence (P34995 1-402): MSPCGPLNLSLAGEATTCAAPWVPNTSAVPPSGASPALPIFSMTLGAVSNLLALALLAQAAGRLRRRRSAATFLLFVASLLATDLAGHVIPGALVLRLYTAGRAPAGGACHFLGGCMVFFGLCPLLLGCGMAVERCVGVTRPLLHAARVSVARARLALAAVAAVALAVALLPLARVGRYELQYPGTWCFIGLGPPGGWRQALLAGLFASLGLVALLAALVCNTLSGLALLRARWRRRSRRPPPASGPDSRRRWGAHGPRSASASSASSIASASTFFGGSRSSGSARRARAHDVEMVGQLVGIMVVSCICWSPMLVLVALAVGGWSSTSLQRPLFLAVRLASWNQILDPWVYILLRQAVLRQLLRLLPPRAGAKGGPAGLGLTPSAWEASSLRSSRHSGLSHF
Description: as §1, §2, §3

rat EP4 receptor = target: T4, rat EP4 receptor (Rattus norvegicus, UniProt P43114); experiment: Whole cell 3H-PGE2 binding with Scatchard analysis in 293S transfectants; conditions: cell line selected for compound screening
T4 construct: expressed in transfected cells
Description: Clonal cell lines expressing the maximal number of receptors are chosen following a whole cell ^3H-PGE2 binding assay using unlabeled PGE2 as a competitor. […] Constitutive expression of the receptor in parental 293-S cells is negligible. A stable cell line containing the rat EP4 receptor is grown in Dulbecco's Mosified Eagle Medium/F12 (DMEM/F12) containing 10% fetal bovine serum and G418 (500 μg/ml) to 80% confluency.

T4 sequence (P43114 whole entry): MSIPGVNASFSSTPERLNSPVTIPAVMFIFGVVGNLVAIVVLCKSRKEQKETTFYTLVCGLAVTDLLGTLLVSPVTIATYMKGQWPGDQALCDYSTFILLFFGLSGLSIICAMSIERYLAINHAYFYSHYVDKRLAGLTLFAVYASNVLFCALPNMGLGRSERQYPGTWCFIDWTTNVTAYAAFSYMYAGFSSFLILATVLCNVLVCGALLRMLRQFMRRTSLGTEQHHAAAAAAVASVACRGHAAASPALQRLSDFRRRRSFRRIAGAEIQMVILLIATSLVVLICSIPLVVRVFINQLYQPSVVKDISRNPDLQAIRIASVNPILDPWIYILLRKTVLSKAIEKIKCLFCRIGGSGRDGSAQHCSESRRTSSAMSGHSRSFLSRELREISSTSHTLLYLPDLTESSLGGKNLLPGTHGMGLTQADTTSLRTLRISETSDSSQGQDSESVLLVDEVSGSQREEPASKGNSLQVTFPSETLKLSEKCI
T1 sequence (Q62928 whole entry): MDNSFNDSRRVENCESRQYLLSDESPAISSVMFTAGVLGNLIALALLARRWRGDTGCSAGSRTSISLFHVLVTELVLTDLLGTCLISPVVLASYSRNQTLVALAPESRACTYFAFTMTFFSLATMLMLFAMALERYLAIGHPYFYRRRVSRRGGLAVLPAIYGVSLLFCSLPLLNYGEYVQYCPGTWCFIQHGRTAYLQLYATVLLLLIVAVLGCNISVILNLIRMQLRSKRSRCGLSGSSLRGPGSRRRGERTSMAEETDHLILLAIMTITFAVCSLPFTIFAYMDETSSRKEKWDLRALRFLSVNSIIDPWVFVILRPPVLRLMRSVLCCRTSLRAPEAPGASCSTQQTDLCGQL

IC50 (rat EP2 receptor) [nM] | IC50 (human EP3 receptor) [nM] | IC50 (human EP1 receptor) [nM] | Kd (rat EP4 receptor) [nM] | Structure (SMILES)
463 | > 1000 | > 1000 |  | O=C(O)c1ccc(CCCN2C(=O)CC[C@@H]2CC[C@@H](O)Cc2cccc(C(F)(F)F)c2)s1 [Compound 3M]
 |  |  | 2.9 | CCCCC[C@H](O)/C=C/[C@H]1[C@H](O)CC(=O)[C@@H]1C/C=C\CCCC(=O)O [PGE2, Prostaglandin E2]
